Data as given in ChEMBL document CHEMBL2150924, “Inhibition of NaV1.6 sodium channel currents by a novel series of 1,4-disubstituted-triazole derivatives obtained via copper-catalyzed click chemistry” (Bioorg Med Chem Lett, 2012).
pIC50: −log10 of the molar value.

What was measured:
[1] = target: Sodium channel protein type 8 subunit alpha (Rattus norvegicus) (UniProt O88420); assay: Inhibition of rat NaV1.6-mediated current expressed in human HEK293 cells at 10 uM by patch clamp assay; format: cell-based
[2] = target: Sodium channel protein type 8 subunit alpha (Rattus norvegicus, UniProt O88420); assay: Inhibition of rat NaV1.6-mediated current expressed in human HEK293 cells by patch clamp assay; format: cell-based
Chain of Sodium channel protein type 8 subunit alpha (O88420 whole entry): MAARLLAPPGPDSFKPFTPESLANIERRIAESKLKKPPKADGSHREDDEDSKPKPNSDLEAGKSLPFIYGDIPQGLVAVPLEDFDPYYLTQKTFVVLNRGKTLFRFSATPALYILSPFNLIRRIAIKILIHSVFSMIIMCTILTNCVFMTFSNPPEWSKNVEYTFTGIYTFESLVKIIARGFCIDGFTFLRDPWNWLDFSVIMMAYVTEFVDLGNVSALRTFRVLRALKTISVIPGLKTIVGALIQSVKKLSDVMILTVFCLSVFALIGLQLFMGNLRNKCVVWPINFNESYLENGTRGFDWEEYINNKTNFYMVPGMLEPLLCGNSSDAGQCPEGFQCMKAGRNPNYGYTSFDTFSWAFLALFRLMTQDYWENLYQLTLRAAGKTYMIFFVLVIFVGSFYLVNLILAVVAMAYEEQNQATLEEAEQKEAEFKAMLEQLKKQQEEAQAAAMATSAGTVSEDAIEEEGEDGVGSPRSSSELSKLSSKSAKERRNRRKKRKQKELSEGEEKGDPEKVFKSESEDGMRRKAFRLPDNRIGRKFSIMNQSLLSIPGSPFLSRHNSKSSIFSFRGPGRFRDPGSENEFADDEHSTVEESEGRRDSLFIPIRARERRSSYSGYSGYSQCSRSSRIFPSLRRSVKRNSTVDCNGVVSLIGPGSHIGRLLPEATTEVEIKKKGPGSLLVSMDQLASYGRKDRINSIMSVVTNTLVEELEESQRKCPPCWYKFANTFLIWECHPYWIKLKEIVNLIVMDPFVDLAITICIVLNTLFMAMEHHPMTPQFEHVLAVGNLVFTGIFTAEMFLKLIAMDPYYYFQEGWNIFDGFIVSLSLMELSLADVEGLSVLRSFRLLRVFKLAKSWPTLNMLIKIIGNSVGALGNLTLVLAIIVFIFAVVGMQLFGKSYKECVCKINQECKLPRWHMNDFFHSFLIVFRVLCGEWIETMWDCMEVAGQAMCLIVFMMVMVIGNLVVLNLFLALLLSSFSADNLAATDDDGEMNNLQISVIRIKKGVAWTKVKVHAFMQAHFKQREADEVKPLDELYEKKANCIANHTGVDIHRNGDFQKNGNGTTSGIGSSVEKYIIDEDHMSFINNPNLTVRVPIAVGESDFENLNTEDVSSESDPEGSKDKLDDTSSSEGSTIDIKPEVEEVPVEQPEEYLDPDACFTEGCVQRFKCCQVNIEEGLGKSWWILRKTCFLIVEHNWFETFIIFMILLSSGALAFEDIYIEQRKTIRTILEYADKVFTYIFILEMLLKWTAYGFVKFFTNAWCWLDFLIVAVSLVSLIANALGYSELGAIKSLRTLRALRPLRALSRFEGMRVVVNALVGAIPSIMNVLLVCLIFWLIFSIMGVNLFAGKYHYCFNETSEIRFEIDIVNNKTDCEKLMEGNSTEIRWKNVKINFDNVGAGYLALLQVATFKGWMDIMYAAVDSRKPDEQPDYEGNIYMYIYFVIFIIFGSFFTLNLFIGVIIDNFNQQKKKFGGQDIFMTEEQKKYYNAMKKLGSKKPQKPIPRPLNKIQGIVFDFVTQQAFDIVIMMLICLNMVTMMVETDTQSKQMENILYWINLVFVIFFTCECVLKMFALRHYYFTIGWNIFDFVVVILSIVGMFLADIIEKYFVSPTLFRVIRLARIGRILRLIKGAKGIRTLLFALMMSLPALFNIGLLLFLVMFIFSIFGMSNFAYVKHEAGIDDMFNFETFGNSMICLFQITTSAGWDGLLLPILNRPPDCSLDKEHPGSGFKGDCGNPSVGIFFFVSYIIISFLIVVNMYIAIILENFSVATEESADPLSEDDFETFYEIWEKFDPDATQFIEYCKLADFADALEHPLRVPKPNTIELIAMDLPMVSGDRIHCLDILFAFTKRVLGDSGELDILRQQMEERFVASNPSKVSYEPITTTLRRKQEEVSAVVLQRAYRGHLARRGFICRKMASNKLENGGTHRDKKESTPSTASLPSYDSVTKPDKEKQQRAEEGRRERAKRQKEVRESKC

Chain of Sodium channel protein type 8 subunit alpha (Rattus norvegicus) (O88420 whole entry): as above

inhibition [1]	pIC50 [2]	SMILES
21.7%	4.71	COc1ccc(-c2nc(-c3ccccc3)c[nH]2)cc1
5.9%	–	c1ccc(OCCCc2cn(-c3ccccc3)nn2)cc1
16%	–	c1ccc(-c2c[nH]c(-c3ccccc3)n2)cc1
8.9%	–	c1ccc(CCn2cc(COc3ccccc3)nn2)cc1
11.5%	–	c1ccc(CCn2cc(-c3ccccc3)nn2)cc1
26%	4.50	c1ccc(Cn2cc(CCCOc3ccccc3)nn2)cc1
11%	–	c1ccc(Cn2cc(COc3ccccc3)nn2)cc1
16%	4.55	c1ccc(OCc2cn(-c3ccccc3)nn2)cc1
3.9%	–	O=C(Cn1cc(-c2ccccc2)nn1)c1ccccc1
13.6%	–	O=C(Cn1cc(COc2ccccc2)nn1)c1ccccc1
10%	3.90	c1ccc(Cn2cc(-c3ccccc3)nn2)cc1
6.2%	–	c1ccc(-c2cn(-c3ccccc3)nn2)cc1
22.7%	4.28	c1ccc(CCn2cc(CCCOc3ccccc3)nn2)cc1
22.7%	4.27	O=C(Cn1cc(CCCOc2ccccc2)nn1)c1ccccc1
